PubChem BioAssay AID1259407 (Chemical Carcinogenesis Research Information System (CCRIS), 2018)
Calls of active or inactive are those of the source. The rule behind the calls is not given here.

Tested on: CCRIS mutagenicity, Ames/micronucleus/aberration tests
Assay: CCRIS mutagenicity studies
Settings: Test System: AMES SALMONELLA TYPHIMURIUM
[1] = Strain/Indicator: TA98, Metabolic Activation: NONE, Method: STANDARD PLATE
[2] = Strain/Indicator: TA98, Metabolic Activation: RAT, LIVER, S-9, AROCLOR 1254, Method: STANDARD PLATE
[3] = Strain/Indicator: TA100, Metabolic Activation: NONE, Method: STANDARD PLATE
[4] = Strain/Indicator: TA100, Metabolic Activation: RAT, LIVER, S-9, AROCLOR 1254, Method: STANDARD PLATE

Q: Which mutagenic call (Strain/Indicator: TA97, Metabolic Activation: NONE, Method: STANDARD PLATE) does the source give for `CNCCCC(=O)O` here?
A: Its mutagenic call is “inactive; negative”.

Q: What about the mutagenic call (Strain/Indicator: TA97, Metabolic Activation: RAT, LIVER, S-9, AROCLOR 1254, Method: STANDARD PLATE) of the same compound?
A: The mutagenic call was “inactive; negative”.

Q: What about the mutagenic call [1] of the same compound?
A: Its mutagenic call is “inactive; negative”.

Q: And the mutagenic call (Strain/Indicator: TA98, Metabolic Activation: RAT, LIVER, S-9, AROCLOR 1254, Method: PREINCUBATION)?
A: Its mutagenic call is “inactive; negative”.

Q: What about the mutagenic call [2] of the same compound?
A: The mutagenic call was “inactive; negative”.

Q: And the mutagenic call [3]?
A: The mutagenic call was “inactive; negative”.

Q: And the mutagenic call [4]?
A: The mutagenic call was “inactive; negative”.

Q: And the mutagenic call (Strain/Indicator: TA102, Metabolic Activation: NONE, Method: STANDARD PLATE)?
A: Its mutagenic call is “inactive; negative”.

Q: What about the mutagenic call (Strain/Indicator: TA102, Metabolic Activation: RAT, LIVER, S-9, AROCLOR 1254, Method: STANDARD PLATE) of the same compound?
A: The mutagenic call was “inactive; negative”.

Q: And the mutagenic call (Strain/Indicator: TA104, Metabolic Activation: NONE, Method: STANDARD PLATE)?
A: Its mutagenic call is “inactive; negative”.

Q: And the mutagenic call (Strain/Indicator: TA104, Metabolic Activation: RAT, LIVER, S-9, AROCLOR 1254, Method: PREINCUBATION)?
A: Its mutagenic call is “inactive; negative”.

Q: What about the mutagenic call (Strain/Indicator: TA104, Metabolic Activation: RAT, LIVER, S-9, AROCLOR 1254, Method: STANDARD PLATE) of the same compound?
A: Its mutagenic call is “inactive; negative”.

Q: And the mutagenic call (Strain/Indicator: TA2638, Metabolic Activation: NONE, Method: STANDARD PLATE)?
A: The mutagenic call was “inactive; negative”.

Q: And the mutagenic call (Strain/Indicator: TA2638, Metabolic Activation: RAT, LIVER, S-9, AROCLOR 1254, Method: STANDARD PLATE)?
A: The mutagenic call was “inactive; negative”.

Q: And the mutagenic call (Strain/Indicator: UTH8413, Metabolic Activation: NONE, Method: STANDARD PLATE)?
A: Its mutagenic call is “inactive; negative”.

Q: What about the mutagenic call (Strain/Indicator: UTH8413, Metabolic Activation: RAT, LIVER, S-9, AROCLOR 1254, Method: STANDARD PLATE) of the same compound?
A: The mutagenic call was “inactive; negative”.

Q: And the mutagenic call (Strain/Indicator: UTH8414, Metabolic Activation: NONE, Method: STANDARD PLATE)?
A: The mutagenic call was “inactive; negative”.

Q: What about the mutagenic call (Strain/Indicator: UTH8414, Metabolic Activation: RAT, LIVER, S-9, AROCLOR 1254, Method: STANDARD PLATE) of the same compound?
A: The mutagenic call was “inactive; negative”.

Q: `O=[N+]([O-])c1cc2[nH]c3ccc4ccc(O)cc4c3c2c2ccccc12` was tested. Which mutagenic call [1] did it give?
A: The mutagenic call was “active; positive”.

Q: And the mutagenic call (Strain/Indicator: TA98, Metabolic Activation: RAT, LIVER, S-9, 3-METHYLCHOLANTHRENE, Method: STANDARD PLATE)?
A: The mutagenic call was “active; positive”.

Q: What about the mutagenic call [3] of the same compound?
A: The mutagenic call was “active; positive”.

Q: And the mutagenic call (Strain/Indicator: TA100, Metabolic Activation: RAT, LIVER, S-9, 3-METHYLCHOLANTHRENE, Method: STANDARD PLATE)?
A: The mutagenic call was “active; positive”.

Q: With `CCN(CC)C(=S)S[C@@H]1O[C@H](CO)[C@@H](O)[C@H](O)[C@H]1O` as the compound, how does the mutagenic call [1] read?
A: The mutagenic call was “inactive; negative”.

Q: And the mutagenic call [2]?
A: The mutagenic call was “inactive; negative”.

Q: What about the mutagenic call [3] of the same compound?
A: The mutagenic call was “inactive; negative”.

Q: What about the mutagenic call [4] of the same compound?
A: The mutagenic call was “inactive; negative”.

Q: Which results are given for `C=C(C)C(=O)OC(C)(C)C`?
A: mutagenic call [1]: inactive; negative; mutagenic call [2]: inactive; negative; mutagenic call (Strain/Indicator: TA98, Metabolic Activation: RAT, LIVER, S-9, SODIUM PHENOBARBITAL, Method: STANDARD PLATE): inactive; negative; mutagenic call [3]: inactive; negative; mutagenic call [4]: inactive; negative; mutagenic call (Strain/Indicator: TA100, Metabolic Activation: RAT, LIVER, S-9, SODIUM PHENOBARBITAL, Method: STANDARD PLATE): inactive; negative; mutagenic call (Strain/Indicator: TA1535, Metabolic Activation: NONE, Method: STANDARD PLATE): inactive; negative; mutagenic call (Strain/Indicator: TA1535, Metabolic Activation: RAT, LIVER, S-9, AROCLOR 1254, Method: STANDARD PLATE): inactive; negative; mutagenic call (Strain/Indicator: TA1535, Metabolic Activation: RAT, LIVER, S-9, SODIUM PHENOBARBITAL, Method: STANDARD PLATE): inactive; negative; mutagenic call (Strain/Indicator: TA1537, Metabolic Activation: NONE, Method: STANDARD PLATE): inactive; negative; mutagenic call (Strain/Indicator: TA1537, Metabolic Activation: RAT, LIVER, S-9, AROCLOR 1254, Method: STANDARD PLATE): inactive; negative; mutagenic call (Strain/Indicator: TA1537, Metabolic Activation: RAT, LIVER, S-9, SODIUM PHENOBARBITAL, Method: STANDARD PLATE): inactive; negative; mutagenic call (Strain/Indicator: TA1538, Metabolic Activation: NONE, Method: STANDARD PLATE): inactive; negative; mutagenic call (Strain/Indicator: TA1538, Metabolic Activation: RAT, LIVER, S-9, AROCLOR 1254, Method: STANDARD PLATE): inactive; negative; mutagenic call (Strain/Indicator: TA1538, Metabolic Activation: RAT, LIVER, S-9, SODIUM PHENOBARBITAL, Method: STANDARD PLATE): inactive; negative
